Data: patent publication US12054497B2, “Substituted heterocyclic fused cyclic compound, preparation method therefor and pharmaceutical use thereof” (GENFLEET THERAPEUTICS (SHANGHAI) INC., priority 2019, dated 2024)
Where two headings read alike, the source gives them in different places.

How the values were obtained:
Format in all cases: cell-based, human
[1] = system: phosphorylated ERK in MIA PaCa2 cells with Kras G12C mutation; test: p-ERK HTRF assay for cells (Test Example 2); conditions: MIA PaCa2 cells, 2 hours with compound, read-out: p-ERK IC50
Description: MIA PaCa2 was a human pancreatic carcinoma cell line with Kras G12C mutation, which was cultured in a DMEM with 10% FBS and 2.5% Horse serum. Cells in logarithmic growth phase were detached with trypsin and EDTA, collected and counted, and 2.5E4 cells were seeded to a 96-well cell culture plate and cultured overnight. 1000× stock solutions of compounds at a concentration gradient of 3.16 were prepared by using DMSO, and diluted 200 times by the medium into 5× stock solutions of compounds. On the day after cell seeding, 5× stock solution of a compound was added to each well of cell culture plate, with a final concentration being 1× and a DMSO content of 0.1%. DMSO was used as the control. The residual culture was removed after culturing for 2 hours with the compound. To each well, 50 ul of cell lysis buffer was added and mixed uniformly and incubation for 30 minutes. Subsequently, 16 ul of mixed solution was transferred to a 96-well plate with white unclear bottom, and 16 ul of cell lysis buffer was added to the blank control group. After the completion of transfer, 4 ul of p-ERK HTRF antibody mixture was added to each well, and a value of fluorescence intensity was read after incubation for 4 hours. The inhibition rate (IR) of the compound was calculated by the following equation: IR (%)=(RLU control-RLU compound)/(RLU control−RLU blank)×100%. The value of IC50 was calculated by fitting a gradiently diluted concentration of the compound and the corresponding cell proliferation inhibition rate using a Prism 8 four-parameter method.

[2] = system: NCI-H358 cells with Kras G12C mutation; test: Cell proliferation inhibition experiment, 3D spheroid, CellTiter-Glo (Test Example 1); conditions: 5 days
Description: (§1) NCI-H358 was a human NSCLC cell line with Kras G12C mutation, which was cultured in a RPMI-1640 medium with 10% fetal bovine serum (FBS). A549 was a human lung adenocarcinoma cell line with Kras G12S mutation, which was cultured in an F-12K medium with 10% FBS. Cells in logarithmic growth phase were detached with trypsin and EDTA, collected and counted, and H358 was regulated to 1.8E4 cells/ml by using an RPMI-1640 medium with 2% FBS, while A549 was regulated to 8.9E3 cells/ml with an F-12K medium containing 2% FBS. 800 (45 μl) H358 cells and 400 (45 μl) A549 cells were seeded to 384-well spheroid plates, respectively, and cultured overnight to establish 3D cell models. 1000× stock solutions of compounds at a concentration gradient of 3.16 were prepared by using DMSO, and diluted 100 times by the medium with 2% FBS into 10× stock solutions of compounds. On the day after cell seeding, 5 μl of 10× stock solution of a compound was added to each well of cell culture plate, with a final concentration being 1× and a DMSO content of 0.1%. DMSO was used as the control, and the medium with 2% FBS was used as blank control group. After 5 days of cell culture with the compound, 25 μl of CellTiter-Glo working solution was added to each well, and mixed uniformly at 400 rpm and incubation for 30 minutes. After standing at room temperature for 30 minutes, 40 μl of mixed solution was transferred to a 384-well plate with white clear bottom. A value of luminescence was then read, and a cell proliferation inhibition rate (IR) (%)=(RLU control-RLU compound)/(RLU control−RLU blank)×100%. The value of IC50 was calculated by fitting a gradiently diluted concentration of the compound and the corresponding cell proliferation inhibition rate using a Prism 6 four-parameter method.

[3] = system: A549 cells with Kras G12S mutation; test: as above; conditions: 5 days
Description: as §1

[4] = system: MIA PaCa-2 cells with Kras G12C mutation; test: Cell proliferation inhibition experiment, 3D spheroid, CellTiter-Glo (Test Example 3); conditions: 5 days, read-out: MIA-PaCa2 IC50
Description: MIA PaCa-2 was a human pancreatic carcinoma cell line with Kras G12C mutation, which was cultured in a DMEM with 10% FBS and 2.5% Horse serum. A549 was a human lung adenocarcinoma cell line with Kras G12S mutation, which was cultured in an F-12K medium with 10% FBS. Cells in logarithmic growth phase were detached with trypsin and EDTA, collected and counted, and 200 MIA PaCa-2 cells and 400 A549 cells were seeded to 384-well spheroid plates, respectively, and cultured overnight to establish 3D cell models. 1000× stock solutions of compounds at a concentration gradient of 3.16 were prepared by using DMSO, and diluted 100 times by the medium into 10× stock solutions of compounds. On the day after cell seeding, 10× stock solution of a compound was added to each well of cell culture plate, with a final concentration being 1× and a DMSO content of 0.1%. DMSO was used as the control, and the medium was used as the blank. After 5 days of cell culture with the compound, 30 μl of CellTiter-Glo working solution was added to each well, and mixed uniformly and incubation for 30 minutes. After standing at room temperature for 30 minutes, 40 μl of mixed solution was transferred to a 384-well plate with white unclear bottom. A value of luminescence intensity was then read, and a cell proliferation inhibition rate (IR) (%)=(RLU control−RLU compound)/(RLU control−RLU blank)×100%. The value of IC50 was calculated by fitting a gradiently diluted concentration of the compound and the corresponding cell proliferation inhibition rate using an XLFit four-parameter method.

[5] = Homo sapiens, MIA PaCa-2, 120 h

Structure (SMILES) | IC50 [2] [nM] | IC50 [3] [nM] | IC50 [4, 5] [nM] | IC50 ([3]; Homo sapiens, A549, 120 h) [nM] | IC50 ([2]; Homo sapiens, NCI-H358, 120 h) [nM] | also measured
[2H]C([2H])([2H])N1C(=O)[C@H]2CN(C(=O)C=C)CCN2c2c1c(=O)n(-c1c(C(C)C)ncnc1C(C)C)c1c(F)c(-c3c(O)cccc3F)c(Cl)cc21 (atropisomer, axis not shown; (aR)) [Compound Z39-1, (4aR) -3-acryloyl-11-chloro-8-(4,6-diisopropylpyrimidin-5-yl)-9-fluoro-10-(2-fluoro-6-hydroxyphenyl)-6-(deuteromethyl-d3)-2,3,4,4a,6,8-hexahydro-1H-pyrazino[1′,2′,5]pyrazino[2,3-c]quinolin-5,7-dione] | 0.6 | > 30000 | 1 |  |  | IC50 ([1]; Homo sapiens, MIA PaCa-2, 2 h): 11 nM
C=CC(=O)N1CCN2c3c(c(=O)n(-c4c(C)ccnc4C(C)C)c4nc(-c5c(O)cccc5F)c(F)cc34)OC[C@H]2C1 (single isomer, unassigned) [Compound Z1-2] | 198 |  |  | 16500 |  | 
C=CC(=O)N1CCN2c3c(c(=O)n(-c4c(C)ccnc4C(C)C)c4nc(-c5c(O)cccc5F)c(F)cc34)N(CC)C(=O)[C@H]2C1 (single isomer, unassigned) [Compound Z30-1] | 804 | > 30000 |  |  |  | 
C=CC(=O)N1CCN2c3c(c(=O)n(-c4c(C)ccnc4C(C)C)c4nc(-c5c(O)cccc5F)c(F)cc34)N(CC)C(=O)[C@H]2C1 (single isomer, unassigned) [Compound Z30-2] | 47 | > 30000 |  |  |  | IC50 [1]: 488 nM; IC50 [4]: 130 nM
C=CC(=O)N1C[C@@H]2C(=O)Nc3c(c4cc(F)c(-c5c(O)cccc5F)nc4n(-c4c(C)ccnc4C(C)C)c3=O)N2C[C@H]1C (single isomer, unassigned) [Compound Z35-1] | 37 | > 30000 |  |  |  | IC50 [1]: 249 nM
C=CC(=O)N1C[C@@H]2C(=O)Nc3c(c4cc(F)c(-c5c(O)cccc5F)nc4n(-c4c(C)ccnc4C(C)C)c3=O)N2C[C@H]1C (single isomer, unassigned) [Compound Z35-2] | 6 | > 30000 |  |  |  | IC50 [1]: 49 nM
C=CC(=O)N1CC2C(=O)N(C)c3c(c4cc(F)c(-c5c(O)cccc5F)nc4n(-c4c(C(F)(F)F)ccnc4C(C)C)c3=O)N2C[C@H]1C (single isomer, unassigned) [Compound Z49-1] | 9 | 9420 | 12 |  |  | IC50 ([1]; Homo sapiens, MIA PaCa-2, 2 h): 114 nM
C=CC(=O)N1CC2C(=O)N(C)c3c(c4cc(F)c(-c5c(O)cccc5F)nc4n(-c4c(C(F)(F)F)ccnc4C(C)C)c3=O)N2C[C@H]1C (single isomer, unassigned) [Compound Z49-2] | 44 | > 30000 |  |  |  | 
C=CC(=O)N1CCN2c3c(cnc4c3CCN(c3c(C)ccc5[nH]ncc35)C4)OC[C@H]2C1 [Compound Z2, (R)-1-(3-(5-methyl-1H-indazol-4-yl)-1,2,3,4,8a,9,11,12-octahydropyrazino[1′,2′:4,5][1,4]oxazino[2,3-c][1,7]naphthyridin-10(8H)-yl)propyl-2-en-1-one] | 773 | > 10000 |  |  |  | 
C=CC(=O)N1CCN2c3c(c(=O)n(-c4c(C)ccnc4C(C)C)c4nc(-c5c(O)cccc5F)c(F)cc34)N(C)C(=O)[C@H]2C1 [Compound Z9, (4aR)-3-acryloyl-11-fluoro-10-(2-fluoro-6-hydroxyphenyl)-8-(2-isopropyl-4-methylpyridin-3-yl)-6-methyl-2,3,4,4a,6,8-hexahydro-1H-pyrazino[1′,2′:4,5]pyrazino[2,3-c][1,8,8]naphthyridin-5,7-dione] |  |  | 74 |  | 32 | IC50 ([1]; Homo sapiens, MIA PaCa-2, 2 h): 187 nM
C=CC(=O)N1C[C@@H]2C(=O)N(C)c3c(c4cc(F)c(-c5c(O)cccc5F)nc4n(-c4nccnc4C(C)C)c3=O)N2C[C@H]1C [Compound Z22, (2R,4aR)-3-acryloyl-11-fluoro-10-(2-fluoro-6-hydroxyphenyl)-8-(3-isopropylpyrazin-2-yl)-2,6-dimethyl-2,3,4,4a,6,8-hexahydro-1H-pyrazino[1′,2′:4,5]pyrazino[2,3-c][1,8]naphthyridin-5,7-dione] |  |  | 180 | > 30000 | 67 | 
C=CC(=O)N1CCN2c3c(c(=O)n(-c4c(C)ccnc4C(C)C)c4nc(-c5c(O)cccc5F)c(F)cc34)OC[C@@H]2C1 [Compound Z28, (4aS)-3-acryloyl-11-fluoro-10-(2-fluoro-6-hydroxyphenyl)-8-(2-isopropyl-4-methylpyridin-3-yl)-1,2,3,4,4a,5-hexahydropyrazino[1′,2′:4,5][1,4]oxazino[2,3-c][1,8]naphthyridin-7(8H)-one] |  |  | 234 | 16900 | 90 | 
C=CC(=O)N1CCN2c3c(c(=O)n(-c4c(C)ccnc4C(C)C)c4nc(-c5c(C)ccc6[nH]ncc56)c(F)cc34)OC[C@H]2C1 [Compound Z29, (4aR)-3-acryloyl-11-fluoro-8-(2-isopropyl-4-methylpyridin-3-yl)-10-(5-methyl-1H-indazol-4-yl)-1,2,3,4,4a,5-hexahydropyrazino[1′,2′:4,5][1,4]oxazino[2,3-c][1,8]naphthyridin-7(8H)-one] |  |  |  | 21800 | 166 | 
C=CC(=O)N1CCN2c3c(c(=O)n(-c4c(C5CC5)ncnc4C4CC4)c4nc(-c5c(F)cccc5OC)c(F)cc34)N(C)C(=O)[C@H]2C1 [Compound Z32, (4aR)-3-acryloyl-11-fluoro-10-(2-fluoro-6-methoxyphenyl)-8-(4,6-bicyclopropylpyrimidin-5-yl)-6-methyl-2,3,4,4a,6,8-hexahydro-1H-pyrazino[1′,2′:4,5]pyrazino[2,3-c][1,8]naphthyridin-5,7-dione] |  |  | 170 | > 30000 | 64 | 
C=CC(=O)N1C[C@@H]2C(=O)N(C)c3c(c4cc(F)c(-c5c(O)cccc5F)nc4n(-c4c(C(C)C)nn(C)c4C)c3=O)N2C[C@H]1C [Compound Z47, (2R,4aR)-3-acryloyl-11-fluoro-10-(2-fluoro-6-hydroxyphenyl)-8-(3-isopropyl-1,5-dimethyl-1H-pyrazol-4-yl)-2,6-dimethyl-2,3,4,4a,6,8-hexahydro-1H-pyrazino[1′,2′:4,5]pyrazino[2,3-c][1,8]naphthyridin-5,7-dione] |  |  | 83 | > 30000 | 31 | 
C=CC(=O)N1CCN2c3c(c(=O)n(-c4c(C5CC5)ncnc4C4CC4)c4nc(-c5c(O)cccc5F)c(Cl)cc34)N(C)C(=O)[C@H]2C1 [Compound Z72] |  |  |  |  |  | IC50 ([1]; Homo sapiens, MIA PaCa-2, 2 h): 106 nM
